# Test results taken from patent publication US20230398130A1, “METHODS AND COMPOSITIONS FOR DIFFERENTIATING STEM CELLS” (Massachusetts Institute of Technology, priority 2020, published 2023).
# Tested on: Paneth cells
# Test: Flow cytometry of 3D-cultured intestinal organoids (ENR+CD, 6 days): Paneth cell fraction (lysozyme-positive, CD24-mid)
# Assay type: cell-based, murine
# Experimental: Flow cytometry analysis (3D culture). ISC-enriched organoids cultured in 3D Matrigel with ENRCV media were passaged to 24-well plate in 3D Matrigel with ENRCV. At day zero, media were replaced to ENRCD with or without indicated compounds, and media were replaced every other day. […] Flow cytometry was performed using an LSR Fortessa (BD; Koch Institute Flow Cytometry Core at MIT). The data were analyzed using FlowJo v10 software.
# Single live cells were selected by several gating strategies and Paneth cells were identified as lysozyme-high, CD24-mid, side scatter-high (SSC-high) (FIG. 27E). […] To evaluate whether the culture media supplements C and D may alter the effects of the 6 hits, Applicants also performed lysozyme assay in the canonical ENR culture condition in 3-D (because Paneth cells exist in an immature state within ENR, Applicants were unable to robustly quantify Paneth cell number via flow cytometry).
# (§1) Flow cytometry. ISC-enriched organoids in 3D Matrigel culture were passaged to a 48-well plate and induced differentiation for 6 days by ENR+CD media containing DMSO or each drug indicated in the figures. DMSO- or drug-containing media were changed every other day. […] After vigorous pipetting and incubation at 37° C. for 15 min, the cell solution was diluted twice with basal media and centrifuged at 300 rcf for 3 min. […] The cell solution was centrifuged again at 300 rcf for 3 min at 4° C. to pellet the cells. […] Cells were centrifuged again for 3 min at 300 rcf and blocked with staining buffer (FACS buffer containing 0.5% Tween20 (Sigma, P2287)) for 15 min at RT in the dark. […] Flow cytometry was performed using an LSR Fortessa (BD; Koch Institute Flow Cytometry Core at MIT). Flow cytometry data were analyzed using FlowJo X v10.6.1 software.
# Live Paneth cells were identified as LYZ-high, CD24-mid, side scatter-high (SSC-high) (FIG. 50F).
# as §1, with “organoids in 3-D Matrigel culture” for “organoids in 3D Matrigel culture”, “to a 24- or 48-well plate” for “to a 48-well plate”
compound,measurement,setting,value
O=C(/C=C\n1cnc(-c2cc(C(F)(F)F)cc(C(F)(F)F)c2)n1)NNc1cnccn1 [KPT-330],enrichment in mature Paneth cells at day 6,KPT-330 treatment day 0-2 of 6-day ENR+CD differentiation,greatest enrichment in mature Paneth cells
same,enrichment in mature Paneth cells at day 6,KPT-330 treatment day 2-4,moderate enrichment
same,enrichment in mature Paneth cells at day 6 (flow cytometry),KPT-330 treatment day 4-6,no different than untreated
same,mature Paneth cell population within organoids,"hit compound at most potent dose from 2.5-D screening, ENR+CD 6 days, 3-D culture, vs control",significantly enhanced the mature Paneth cell population
